≈ marks a conversion by molar mass, not a printed value. Like-named read-outs stand apart in the source and are kept apart here. Residues, ends and D or L forms follow the SMILES beside them.
Experiments:
[1] = Role of cytoskeletal structure in susceptibility to lysis, FDD cell viability; conditions: donkey, primary fetal donkey dermal cells (FDD), % Viability of Treated DD Cells, 100 μM peptide 15 minutes
[2] = tested on: E. coli; test: Synergy of lytic peptide with antibiotics
[3] = tested on: Human mononuclear leukocytes; test: 3H-thymidine uptake in WBC (proliferation); type: cell-based
Experimental: Human mononuclear leukocytes were isolated from whole blood in the following manner. Blood was collected in vacutainer tubes containing EDTA, and was then diluted with an equal valume of calcium and magnesium-free PBS and layered over Histopaque resin (GIBCO). The tubes were centrifuged for 30 minutes at 25° C. and 450× g. The plasma and platelets above the banded layer of cells in the resulting gradient were removed and discarded. The banded white blood cells were removed to fresh test tubes, washed 3 times with PBS, and resuspended in RPMI medium containing 10% fetal bovine serum (FBS), mercaptoethanol, and penicillin and streptomycin as antibiotics. The cells were then counted and resuspended to a final concentration of 3×10^6 cells/ml.
To each well of a 96 well flat-bottomed microtiter plate was aded 100 μl of cells (3×10^5 cells). Treatment groups were set in quadruplicate samples. The appropriate concentration of test peptide and/or the mitogen hytohemaglutinate (PHA), was added in a total volume of 100 μl of medium to the test wells. The plates were then incubated at 37° C. and 5% CO2 for a duration of 72 hours. At the end of the incubation period, 1 μCi of 3H-thymidine in 1 μl TRIS-HCI, PH8 was added to each well, and the plates incubated an additional 18 hours.
Cellular DNA was harvested onto glass fiber filters using a semi-automatic cell harvester. The glass filters were then placed into vials containing scintillation fluid, and the samples were counted in a scintillation counter. The uptake of 3H-thymidine is an indiator of cell proliferation, thus the higher the number of counts in the sample, the greater the proliferative activity of the cells. The results in Table XI indicate that low dose of the synthetic peptides of this invention stimulate cell growth.

[4] = tested on: B-16 myeloma cells; test: B-16 cell viability, trypan blue exclusion; type: cell-based; conditions: for % Cell Viability: 100 μM peptide, one hour
Experimental: (§1) B-16 myeloma cells and normal 3T3 […] fibroblasts were either permitted to attach to the test plate, or treated with trypsin to free the cells from the plastic dish prior to treatment. Cells were then treated with 100 μM lytic peptide for one hour as described above, and cell viability was then determined by trypan blue exclusion.

[5] = 3T3 fibroblast viability, trypan blue exclusion; type: cell-based; conditions: human, 100 μM peptide, one hour, read-out: % Cell Viability
Experimental: as §1

[6] = tested on: S. aureus; test: MBC and MIC susceptibility test; type: cell-based
[7] = tested on: E. coli; test: MBC and MIC susceptibility test; type: cell-based
[8] = tested on: P. aeruginosa; test: MBC and MIC susceptibility test; type: cell-based
[9] = tested on: S. auerus; test: Synergy of lytic peptide with antibiotics
[10] = tested on: EL-4 lymphoma cells; test: EL-4 cell killing, trypan blue exclusion; conditions: one hour, 37° C.
[11] = Lytic activity (general statement)
[12] = tested on: lymphocytes; type: cell-based, human
[13] = Manitou-1 0.01 μM + Streptomycin 0.5 μM
[14] = Manitou-1 0.01 μM + Streptomycin 5.0 μM
[15] = Manitou-1 0.01 μM + Tetracycline 0.5 μM
[16] = Manitou-1 0.01 μM + Tetracycline 5.0 μM
[17] = Manitou-1 0.01 μM, no antibiotic
[18] = Manitou-1 0.10 μM + Streptomycin 0.5 μM
[19] = Manitou-1 0.10 μM + Streptomycin 5.0 μM
[20] = Manitou-1 0.10 μM + Tetracycline 0.5 μM
[21] = Manitou-1 0.10 μM + Tetracycline 5.0 μM
[22] = Manitou-1 0.10 μM, no antibiotic
[23] = Manitou-1 1.0 μM + Streptomycin 0.5 μM
[24] = Manitou-1 1.0 μM + Streptomycin 5.0 μM
[25] = Manitou-1 1.0 μM + Tetracycline 0.5 μM
[26] = Manitou-1 1.0 μM + Tetracycline 5.0 μM
[27] = Manitou-1 1.0 μM, no antibiotic

Question: Which viability at 15 minutes, 100 μM ([1]; Cold-treated (4° C.)) does the source give for `CSCC[C@H](NC(=O)[C@H](CCCNC(=N)N)NC(=O)[C@H](CCCCN)NC(=O)[C@@H](N)CCSC)C(=O)N[C@H](C(=O)N[C@@H](CO)C(=O)N[C@@H](Cc1c[nH]c2ccccc12)C(=O)N[C@@H](CO)C(=O)N[C@@H](Cc1ccccc1)C(=O)N[C@@H](CCCCN)C(=O)N[C@@H](CCCCN)C(=O)N[C@@H](CC(C)C)C(=O)N[C@@H](CCCCN)C(=O)N[C@H](C(=O)N[C@@H](CCSC)C(=O)N[C@@H](CCCCN)C(=O)N[C@@H](CCCCN)C(=O)N[C@@H](CC(C)C)C(=O)N[C@@H](CC(C)C)C(=O)N[C@@H](CC(C)C)C(=O)N[C@@H](CC(C)C)C(=O)N[C@@H](CC(C)C)C(=O)N[C@@H](CC(C)C)C(=O)N[C@@H](CS)C(=O)N[C@H](C(=O)N[C@@H](Cc1ccccc1)C(=O)N[C@@H](CC(C)C)C(=O)N[C@H](C(=O)N[C@@H](CCCCN)C(=O)N[C@@H](CO)C(N)=O)C(C)C)C(C)C)[C@@H](C)O)C(C)C` [Manitou-1] (H-MKRMVSWSFKKLKTMKKLLLLLLCVFLVKS-NH2) here?
Answer: 8%

Question: And the viability at 15 minutes, 100 μM ([1]; Warm-treated (37° C.))?
Answer: 78%

Question: What about the viability at 15 minutes, 100 μM ([1]; with colchicine 0.1 μg/ml (cytoskeletal inhibitor), Colchicine-treated (0.1 μg/ml)) of the same compound?
Answer: 30%

Question: What about the viability at 15 minutes, 100 μM ([1]; with cytochalasin D 5 μg/ml (cytoskeletal inhibitor), Cytochalasin D-treated (5 μg/ml)) of the same compound?
Answer: 23%

Question: What about the “% Cell Death In E. coli” value [2, 13] of the same compound?
Answer: 99.9%

Question: What about the “% Cell Death In E. coli” value [2, 14] of the same compound?
Answer: 58%

Question: And the “% Cell Death In E. coli” value [2, 15]?
Answer: 68%

Question: What about the “% Cell Death In E. coli” value [2, 16] of the same compound?
Answer: 88%

Question: What about the “% Cell Death In E. coli” value [2, 17] of the same compound?
Answer: 0%

Question: And the “% Cell Death In E. coli” value [2, 18]?
Answer: 68%

Question: What about the “% Cell Death In E. coli” value [2, 19] of the same compound?
Answer: 99.9%

Question: And the “% Cell Death In E. coli” value [2, 20]?
Answer: 0%

Question: And the “% Cell Death In E. coli” value [2, 21]?
Answer: 58%

Question: And the “% Cell Death In E. coli” value [2, 22]?
Answer: 0%

Question: What about the “% Cell Death In E. coli” value [2, 23] of the same compound?
Answer: 0%

Question: And the “% Cell Death In E. coli” value [2, 24]?
Answer: 99.9%

Question: And the “% Cell Death In E. coli” value [2, 25]?
Answer: 0%

Question: And the “% Cell Death In E. coli” value [2, 26]?
Answer: 47%

Question: And the “% Cell Death In E. coli” value [2, 27]?
Answer: 0%

Question: What about the “interaction with streptomycin in E. Coli (in words)” value ([2]; Manitou-1 with streptomycin) of the same compound?
Answer: synergistic action

Question: And the “3H-Thymidine Uptake in WBC, % of Control” value ([3]; peptide 10 μM, PHA 0 mg)?
Answer: 239%

Question: What about the “3H-Thymidine Uptake in WBC, % of Control” value ([3]; peptide 10 μM, PHA 0.5 mg) of the same compound?
Answer: 191%

Question: And the “3H-Thymidine Uptake in WBC, % of Control” value ([3]; peptide 10 μM, PHA 5.0 mg)?
Answer: 125%

Question: What about the “3H-Thymidine Uptake in WBC, % of Control” value ([3]; peptide 25 μM, PHA 0 mg) of the same compound?
Answer: 325%

Question: And the “3H-Thymidine Uptake in WBC, % of Control” value ([3]; peptide 25 μM, PHA 0.5 mg)?
Answer: 153%

Question: What about the “3H-Thymidine Uptake in WBC, % of Control” value ([3]; peptide 25 μM, PHA 5.0 mg) of the same compound?
Answer: 143%

Question: What about the “3H-Thymidine Uptake in WBC, % of Control” value ([3]; peptide 50 μM, PHA 0 mg) of the same compound?
Answer: 62%

Question: What about the “3H-Thymidine Uptake in WBC, % of Control” value ([3]; peptide 50 μM, PHA 0.5 mg) of the same compound?
Answer: 61%

Question: And the “3H-Thymidine Uptake in WBC, % of Control” value ([3]; peptide 50 μM, PHA 5.0 mg)?
Answer: 63%

Question: And the “3H-Thymidine Uptake in WBC, % of Control” value ([3]; peptide 100 μM, PHA 0 mg)?
Answer: 39%

Question: And the “3H-Thymidine Uptake in WBC, % of Control” value ([3]; peptide 100 μM, PHA 0.5 mg)?
Answer: 8%

Question: And the “3H-Thymidine Uptake in WBC, % of Control” value ([3]; peptide 100 μM, PHA 5.0 mg)?
Answer: 0%

Question: And the “% Cell Viability” value ([4]; B-16 Monolayer)?
Answer: 19%

Question: And the “% Cell Viability” value ([4]; B-16 Suspension (trypsinized))?
Answer: 0%

Question: What about the “selective killing of cancer cells in monolayer culture (in words)” value ([4]; B-16 versus 3T3 attached in monolayer) of the same compound?
Answer: more effective than LSB-37 in selectively killing cancer cells

Question: What about the viability at 1 h, 100 μM ([5]; normal 3T3 human fibroblasts, 3T3 Suspension (trypsinized)) of the same compound?
Answer: 5%

Question: What about the viability at 1 h, 100 μM ([5]; 3T3 Monolayer) of the same compound?
Answer: 85%

Question: And the MBC ([6]; Table III, S. aureus (+))?
Answer: 32 µM (≈ 116 µg/mL)

Question: And the MBC ([7]; Table III)?
Answer: 8 µM (≈ 28.9 µg/mL)

Question: What about the MBC ([8]; Table III, P. aeuriginosa (−)) of the same compound?
Answer: 16 µM (≈ 57.8 µg/mL)

Question: And the “% Cell Death In S. auerus” value [9, 13]?
Answer: 0%

Question: What about the “% Cell Death In S. auerus” value [9, 14] of the same compound?
Answer: 87%

Question: And the “% Cell Death In S. auerus” value [9, 15]?
Answer: 0%

Question: What about the “% Cell Death In S. auerus” value [9, 16] of the same compound?
Answer: 35%

Question: What about the “% Cell Death In S. auerus” value [9, 17] of the same compound?
Answer: 0%

Question: And the “% Cell Death In S. auerus” value [9, 18]?
Answer: 0%

Question: And the “% Cell Death In S. auerus” value [9, 19]?
Answer: 95%

Question: What about the “% Cell Death In S. auerus” value [9, 20] of the same compound?
Answer: 0%

Question: And the “% Cell Death In S. auerus” value [9, 21]?
Answer: 35%

Question: And the “% Cell Death In S. auerus” value [9, 22]?
Answer: 0%

Question: What about the “% Cell Death In S. auerus” value [9, 23] of the same compound?
Answer: 0%

Question: And the “% Cell Death In S. auerus” value [9, 24]?
Answer: 86%

Question: What about the “% Cell Death In S. auerus” value [9, 25] of the same compound?
Answer: 0%

Question: What about the “% Cell Death In S. auerus” value [9, 26] of the same compound?
Answer: 35%

Question: What about the “% Cell Death In S. auerus” value [9, 27] of the same compound?
Answer: 0%

Question: What about the “% EL-4 Cells Killed” value ([10]; 10 μM peptide) of the same compound?
Answer: 5%

Question: What about the “% EL-4 Cells Killed” value ([10]; 25 μM peptide) of the same compound?
Answer: 28%

Question: What about the “% EL-4 Cells Killed” value ([10]; 50 μM peptide) of the same compound?
Answer: 78%

Question: What about the “% EL-4 Cells Killed” value ([10]; 100 μM peptide) of the same compound?
Answer: 100%

Question: For `CC[C@H](C)[C@H](NC(=O)[C@H](CC(N)=O)NC(=O)[C@H](CCCNC(=N)N)NC(=O)CNC(=O)[C@H](CCSC)NC(=O)[C@H](CCCCN)NC(=O)[C@H](CCC(=O)O)NC(=O)[C@@H](NC(=O)[C@H](CCCCN)NC(=O)[C@H](CC(C)C)NC(=O)[C@H](Cc1ccccc1)NC(=O)[C@@H](NC(=O)[C@H](CCCCN)NC(=O)[C@H](CCC(=O)O)NC(=O)[C@H](CCCCN)NC(=O)[C@@H]1CCCN1C(=O)[C@@H](N)CCSC)C(C)C)[C@@H](C)CC)C(=O)N[C@@H](CCCNC(=N)N)C(=O)N[C@@H](CC(N)=O)C(N)=O` [Vishnu-3] (H-MPKEKVFLKIEKMGRNIRN-NH2), which “lytic activity (in words)” value [11] is on record?
Answer: devoid of lytic activity

Question: What about the “stimulation of cell proliferation (in words)” value [12] of the same compound?
Answer: potent stimulator of cell proliferation

Question: What about the “antibacterial result of treatment (Table I; MBC)” value (“antibacterial result of treatment” below) ([6]; S. auerus (+)) of the same compound?
Answer: >64 µM

Question: What about the “antibacterial result of treatment” value [7] of the same compound?
Answer: >64 µM

Question: And the “antibacterial result of treatment” value ([8]; P. aeruginosa (−))?
Answer: >64 µM

From patent US20020025918A1, “Methods of using helical peptides in plants” (priority 1987, published 2002)
